Measured values reported in patent US10913983B2, “Sensitivity markers and uses for CDK7 inhibitors in breast cancers” (UNIVERSITY OF SOUTH CAROLINA, priority 2017, dated 2021).
pIC50: −log10 of the molar value. Like-named read-outs stand apart in the source and are kept apart here.

Experiments:
MDA-MB-231 = test: Cell proliferation MTT assay; type: cell-based
Description: (§1) Cells were seeded in 12-well plates at densities ranging from 10000-30000 cells/well and after 24 hours cells were treated with 10, 40 and 100 nM THZ1 in triplicate. After 7 days the cells were imaged using Zeiss Axiovert 200 microscope using a 20× objective lens. Additionally, cells were plated in 96-well plates at a density of 2000 cells/well and after 24 hours treated with 0-10 μM THZ1. After 2 and 7 days the growth of the cells was measured by MTT assay.
(§2) All results were presented as mean±standard deviation of 4-8 parallel assessments. Similar results were obtained from a minimum of two independent experiments. […] Densitometry was performed on duplicate immunoblots using ImageLab software (Biorad) and normalized to tubulin loading controls and then correlated with the THZ1 IC50 values of each cell line. Statistical analyses were performed using SPSS 18.0 (SPSS Inc). Bi-variant scatter graphs and Spearman rank analyses were performed to evaluate associations between protein levels, mRNA and response to inhibition. IC50 values were calculated for MTT assays using CompuSyn software.

[1] = system: breast cancer cell lines (TNBC, ER+HER2−, ER+HER2+ and ER−/HER2+); test: Cell proliferation, 12-well plates, bright-field imaging; type: cell-based; conditions: 100 nM, seven days of treatment
Description: as §1
The effects of different concentrations of THZ1 on breast cancer cell lines was examined. Cell lines included TNBC, ER+HER2−, ER+HER2+ and ER−/HER2+ and effects were studied over seven days of treatment.

[2] = system: panel of breast cancer cell lines; test: Cell proliferation MTT assay, cell line panel; type: cell-based
Description: as §1, §2
To investigate the effect of CDK7 inhibition in a time and dose dependent manner, an extended panel of 11 breast cancer cell lines were screened for response to THZ1 after 2 and 7 days of treatment.

MDA-MB-231 cells = test: Cell cycle analysis; type: cell-based; conditions: MDA-MB-231, 100 and 250 nM
Description: (§3) MDA-MB-231 and T47D cells were seeded into 6-well plates and allow to grow until 60% confluent. The cells were then washed with PBS and the media was replaced with serum-free media overnight. After serum starvation the cells were treated with serum containing media in the presence or absence of 100 and 250 nM THZ1 for 24 and 48 hours. The cells were collected, fixed in ethanol overnight and cell cycle distribution was measured using DAPI on the LSR2 (Beckman-Dickinson).

T47D cells = test: Cell cycle analysis; type: cell-based; conditions: 100 and 250 nM, 24 or 48 hours
Description: as §3

CITED2 = test: Immunoblotting of CITED2 protein; type: cell-based; conditions: 10-6250 nM, 4 hours, immunoblot
Description: Cells were plated in 100 mm^2 petri dishes at a density of 1×10^6 cells/plate and allowed to grow for 3-4 days until the cells reached 80% confluency. Cells were treated with THZ1 or with vehicle control (DMSO) prior to lysing cells in RIPA buffer containing protease inhibitor cocktail and PMSF. Protein concentration was determined using BCA assay (Pierce). All lysates were prepared in biological duplicates. Protein (50 μg) was resolved on 4-20% Express-Plus PAGE gels in Tris-MOPS (SDS) running buffer (GenScript), transferred to PVDF membranes and incubated at 4° C. overnight with primary antibodies: CDK7 (sc-529, SantaCruz), ER (sc-543, SantaCruz), HER2 (#4290, Cell Signaling Technology), RNA-Pol II-S2P (C152000005, Diagenode), RNA-Pol II-S5P C152000007, RNA-Pol II-S7P (04-1570, Millipore) and RNA-Pol II (sc-900X, SantaCruz), CITED2 (MAB5005, R+D Systems), Tubulin (T-9026, Sigma), followed by anti-rabbit (#31460, ThermoFisher Scientific), anti-mouse (31430, ThermoFisher Scientific) or anti-rat (AP136P, Millipore) secondary antibodies. Bands were visualized with Western Lighting Plus ECL detection reagent (Perkin Elmer) using ChemiDoc Touch™ (BioRad). Images were analyzed and densitometry performed using ImageLab software (Biorad).

549 = conditions: fold change in gene expression, THZ1; cited from earlier work
T47D = conditions: fold change in gene expression, THZ1; cited from earlier work
ZR751 = conditions: fold change in gene expression, THZ1; cited from earlier work

## CN(C)C/C=C/C(=O)Nc1ccc(C(=O)Nc2cccc(Nc3ncc(Cl)c(-c4c[nH]c5ccccc45)n3)c2)cc1 [THZ1]
MDA-MB-231; MDA-MB-231, 2 days, read-out: 2 day IC50
  pIC50: 6.80
MDA-MB-231; MDA-MB-231, 7 days, read-out: 7 day IC50
  pIC50: 7.44
[1]
  growth inhibition: inhibited the growth of all tested cell lines regardless of subtype
[2]; most sensitive cell line SKBR3 vs least sensitive cell line JIMT-1
  difference in sensitivity determined by IC50: 25 fold
[2]; two-day treatment, read-out: IC50 values of most cell lines
  pIC50: 6.52 to 7.00
MDA-MB-231 cells; 24 hours
  cell cycle distribution: G1 arrest
MDA-MB-231 cells; 48 hours
  cell cycle distribution: increased sub-G1 (apoptotic cell) accumulation
T47D cells
  cell cycle distribution: G1 arrest
CITED2
  protein expression of CITED2: significantly decreased
549
  BAMBI 549 FC: −2.97
  CDKN1B 549 FC: −3.06
  CITED2 549 FC: −4.12
  CYR61 549 FC: −2.96
  DKK1 549 FC: −5.01
  E2F8 549 FC: −3.09
  ELF3 549 FC: −1.11
  FADD 549 FC: −3.1
  FBXO5 549 FC: −4.09
  MARS2 549 FC: −3.73
  MOCS3 549 FC: −4.2
  MYC 549 FC: −3.06
  NEDD9 549 FC: −1.53
  PHLDA1 549 FC: −2.72
  PIM3 549 FC: −2.73
  PLK2 549 FC: −3.7
  TRIB1 549 FC: −4.07
  WEE1 549 FC: −2.95
  ZNF217 549 FC: −3.66
  ZNF627 549 FC: −3.39
T47D
  BAMBI T47D FC: −1.74
  CDKN1B T47D FC: −2.3
  CITED2 T47D FC: −2.71
  CYR61 T47D FC: −1.96
  DKK1 T47D FC: −1.09
  E2F8 T47D FC: −4.01
  ELF3 T47D FC: −1.22
  FADD T47D FC: −3.29
  FBXO5 T47D FC: −2.65
  MARS2 T47D FC: −2.3
  MOCS3 T47D FC: −3.86
  MYC T47D FC: −2.68
  NEDD9 T47D FC: −3.32
  PHLDA1 T47D FC: −3.81
  PIM3 T47D FC: −2.54
  PLK2 T47D FC: −2.48
  TRIB1 T47D FC: −2.31
  WEE1 T47D FC: −1.96
  ZNF217 T47D FC: −2.77
  ZNF627 T47D FC: −2.75
ZR751
  BAMBI ZR751 FC: −3.77
  CDKN1B ZR751 FC: −2.57
  CITED2 ZR751 FC: −2.64
  CYR61 ZR751 FC: −1.81
  DKK1 ZR751 FC: −4.15
  E2F8 ZR751 FC: −4.01
  ELF3 ZR751 FC: −1.65
  FADD ZR751 FC: −4.12
  FBXO5 ZR751 FC: −3.01
  MARS2 ZR751 FC: −3.75
  MOCS3 ZR751 FC: −4.1
  MYC ZR751 FC: −2.98
  NEDD9 ZR751 FC: −2.68
  PHLDA1 ZR751 FC: −2.55
  PIM3 ZR751 FC: −3.96
  PLK2 ZR751 FC: −3.04
  TRIB1 ZR751 FC: −3.54
  WEE1 ZR751 FC: −3.25
  ZNF217 ZR751 FC: −4.13
  ZNF627 ZR751 FC: −3.38
